One assay deals with T1, MalA (Malbranchea aurantiaca, UniProt L0E155).
T1 construct: The malA coding region was amplified from the cDNA template by PCR; made in house; host or cells: E. coli BL21 (DE3) with pGro7 (GroEL/GroES) chaperone plasmid
Briefly: Michaelis-Menten kinetics of MalA chlorination reactions. The format is biochemical. As for the experimental part:
Substrates malbrancheamide B (compound 3) and isomalbrancheamide B (compound 4) to product malbrancheamide (compound 1). Reactions were set up in a total volume of 250 μL with the following components: 1.1 μM MalA, 44 μM HpaC flavin reductase, 100 μM FAD, 50 mM NaCl, 3.6 mM NADH, and a variety of substrate concentrations ranging from 1 μM to 60 μM. Reactions were quenched with methanol by removing 50 μL at each time point (2, 5, 10, 15 minutes). Reactions were analyzed on a Schimadzu HPLC with the following LC time program: 40% acetonitrile for 1 minute, gradient over 6 minutes from 40-85% acetonitrile, 85% acetonitrile for 1 minute, gradient over 1 minute to 40% acetonitrile, re-equilibration to 40% acetonitrile for 3 minutes. The absorbance was measured at 240 nm and the mobile phase consisted of water and acetonitrile. A Phenomenex Lux cellulose-3, cellulose Tris (4-methylbenzoate) 250×4.6 mm column was used for separation. GraphPad Prism (Version 6.01) software was used to plot the initial velocities against the substrate concentration and to determine the kinetic constants kcat and Km.
Substrate premalbrancheamide (compound 2) to products isomalbrancheamide B (compound 4) and malbrancheamide B (compound 3). Reactions were set up in a total volume of 250 μL with the following components: 1.8 μM MalA, 44 μM HpaC, 100 μM FAD, 50 mM NaCl, 3.6 mM NADH, and a variety of substrate concentrations ranging from 5 μM to 80 μM. Reactions were quenched with 100 μL methanol by removing 50 μL at each time point (2, 5, 7, 10 minutes). Reactions were analyzed on a Schimadzu HPLC with the following LC time program: 34% acetonitrile for 1 minute, gradient over 11 minutes to 62% acetonitrile, 62% acetonitrile for 30 seconds, gradient over 30 seconds to 34% acetonitrile, re-equilibration to 34% for 3 minutes. The absorbance was measured at 240 nm and the mobile phase consisted of water and acetonitrile. A Phenomenex Lux cellulose-3 Tris (4-methylbenzoate) 250×4.6 mm column was used for separation.
Michaelis-Menten kinetic parameters were determined for the natural chlorination reactions of MalA. […] These catalytic efficiencies are fairly high compared to those of the eukaryotic FDH Rdc2, which are 2.93 min−1 mM−1 for the initial chlorination reaction and 0.11 min−1 mM−1 for the second chlorination reaction.^4

Another assay has as its system MalA′. Briefly: Co-crystallization with MalA′. The format is binding, Malbranchea graminicola. As for the experimental part:
Crystallization conditions. […] The purified MalA′ was dialyzed overnight into a 20 mM HEPES pH 7 buffer with 200 mM NaCl or 300 mM NaCl to remove glycerol, and then supplemented with an equimolar quantity of FAD. […] For active site complexes with compounds 2, 3, and 4, MalA′ was pre-incubated with a four-fold molar excess of substrate. Crystals were grown by vapor diffusion from 1:2 mixtures of 5 mg/mL MalA′ pre-incubated with compound 2, 3 or 4 and a well solution containing 2 M (NH4)2SO4, 0.2 M Li2SO4, 5 mM CdCl2, and 0.1 M Bis-Tris pH 5.5. Crystals were cryoprotected in well solution augmented with 10% glycerol and flash-cooled in liquid nitrogen.

The mark [1] stands for this setting: chlorination, compound 2 to compound 3.
[2] abbreviates: chlorination, compound 2 to compound 4.
The mark [3] stands for this setting: second chlorination, to compound 1.

T1 sequence (L0E155 whole entry): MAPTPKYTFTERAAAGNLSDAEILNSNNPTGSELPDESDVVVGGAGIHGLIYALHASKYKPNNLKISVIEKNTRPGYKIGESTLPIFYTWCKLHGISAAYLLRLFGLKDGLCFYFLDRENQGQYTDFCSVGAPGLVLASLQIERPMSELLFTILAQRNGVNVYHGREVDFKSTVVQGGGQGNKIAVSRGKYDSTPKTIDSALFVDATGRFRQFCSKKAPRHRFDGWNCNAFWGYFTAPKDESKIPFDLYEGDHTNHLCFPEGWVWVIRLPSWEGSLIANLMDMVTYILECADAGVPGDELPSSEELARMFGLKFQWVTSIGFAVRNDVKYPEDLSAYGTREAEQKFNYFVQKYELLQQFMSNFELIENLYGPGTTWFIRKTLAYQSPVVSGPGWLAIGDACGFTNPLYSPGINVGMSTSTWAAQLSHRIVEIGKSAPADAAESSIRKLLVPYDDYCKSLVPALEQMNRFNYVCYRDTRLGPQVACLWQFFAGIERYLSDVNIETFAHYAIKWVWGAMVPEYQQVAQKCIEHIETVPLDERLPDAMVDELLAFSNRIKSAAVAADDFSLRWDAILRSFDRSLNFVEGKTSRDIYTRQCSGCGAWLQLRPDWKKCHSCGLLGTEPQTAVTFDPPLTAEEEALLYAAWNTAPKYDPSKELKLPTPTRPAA

On to `CC1(C)c2[nH]c3ccccc3c2CC23CN4CCCC4(CC21)C(=O)N3` (stereo not drawn) [compound 2, premalbrancheamide], for which, at MalA (setting [1]), the Km is 7 µM and the kcat was 0.0013 s⁻¹. Besides, at MalA (setting [2]), the Km turned out to be 7.5 µM and the kcat came to 0.0015 s⁻¹.
In the case of `CC1(C)c2[nH]c3cc(Cl)ccc3c2C[C@@]23CN4CCC[C@]4(C[C@@H]12)C(=O)N3` [compound 3, malbrancheamide B], at MalA (setting [3]), the Km turned out to be 4.4 µM and the kcat came out at 0.002 s⁻¹.
On to `CC1(C)c2[nH]c3ccc(Cl)cc3c2C[C@@]23CN4CCC[C@]4(C[C@@H]12)C(=O)N3` [compound 4, isomalbrancheamide B], for which, on MalA (setting [3]), the Km amounted to 4 µM and the kcat was determined as 0.002 s⁻¹.
For the compound `CC1(C)c2[nH]c3cc(Cl)c(Cl)cc3c2C[C@@]23CN4CCC[C@]4(C[C@@H]12)C(=O)N3` [compound 1, malbrancheamide], the “binding in MalA′ crystals” value in the assay with MalA′ is on record as “did not bind in crystals”.

The values above are taken from US12252714B2, “Halogenation of complex organic compounds” (REGENTS OF THE UNIVERSITY OF MICHIGAN, priority 2018, dated 2025).
